# Results as given in publication PMC6978637 (Saudi Pharmaceutical Journal : SPJ, 2019).
# How the values were obtained:
# [1] = target: FGFR1 (Homo sapiens, UniProt P11362); assay: Z'-LYTE kinase enzyme inhibition assay, FGFR1; type: biochemical; conditions: FGFR1-IC50
# [2] = tested on: FGFR1; assay: Z'-LYTE kinase enzyme inhibition assay, FGFR1; type: biochemical; conditions: for FGFR1-SI: selectivity index IC50/IC50, lowest IC50 of the compound = 1
# [3] = target: FGFR2 (Homo sapiens, UniProt P21802); assay: biochemical; conditions: FGFR2-IC50
# Chain of FGFR2 (Homo sapiens, UniProt P21802) (P21802 22-821): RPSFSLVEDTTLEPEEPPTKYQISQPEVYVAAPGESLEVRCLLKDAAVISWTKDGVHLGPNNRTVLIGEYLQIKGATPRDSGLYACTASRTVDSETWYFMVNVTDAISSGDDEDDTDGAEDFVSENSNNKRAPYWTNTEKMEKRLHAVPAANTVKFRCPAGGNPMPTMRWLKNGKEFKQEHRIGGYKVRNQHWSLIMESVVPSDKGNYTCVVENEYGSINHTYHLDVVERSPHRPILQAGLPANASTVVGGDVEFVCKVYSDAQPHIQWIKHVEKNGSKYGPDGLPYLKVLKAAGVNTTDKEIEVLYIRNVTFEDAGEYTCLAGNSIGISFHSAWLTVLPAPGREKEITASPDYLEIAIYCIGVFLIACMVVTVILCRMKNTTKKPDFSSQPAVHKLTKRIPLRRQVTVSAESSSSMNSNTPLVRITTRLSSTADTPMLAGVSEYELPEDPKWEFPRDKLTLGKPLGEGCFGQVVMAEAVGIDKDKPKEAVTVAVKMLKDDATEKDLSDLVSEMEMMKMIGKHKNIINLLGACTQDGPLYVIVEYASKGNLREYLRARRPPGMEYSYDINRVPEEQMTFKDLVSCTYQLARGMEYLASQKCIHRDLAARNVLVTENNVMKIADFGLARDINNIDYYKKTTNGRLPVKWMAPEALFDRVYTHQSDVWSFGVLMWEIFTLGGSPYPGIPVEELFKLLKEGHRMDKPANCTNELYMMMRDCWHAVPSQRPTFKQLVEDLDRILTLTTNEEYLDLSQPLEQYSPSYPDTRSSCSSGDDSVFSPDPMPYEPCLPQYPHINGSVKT
# [4] = tested on: FGFR2; assay: biochemical
# [5] = target: FGFR3 (Homo sapiens, UniProt P22607); assay: biochemical; type: biochemical; conditions: FGFR3-IC50
# Chain of FGFR3 (Homo sapiens, UniProt P22607) (P22607 23-806): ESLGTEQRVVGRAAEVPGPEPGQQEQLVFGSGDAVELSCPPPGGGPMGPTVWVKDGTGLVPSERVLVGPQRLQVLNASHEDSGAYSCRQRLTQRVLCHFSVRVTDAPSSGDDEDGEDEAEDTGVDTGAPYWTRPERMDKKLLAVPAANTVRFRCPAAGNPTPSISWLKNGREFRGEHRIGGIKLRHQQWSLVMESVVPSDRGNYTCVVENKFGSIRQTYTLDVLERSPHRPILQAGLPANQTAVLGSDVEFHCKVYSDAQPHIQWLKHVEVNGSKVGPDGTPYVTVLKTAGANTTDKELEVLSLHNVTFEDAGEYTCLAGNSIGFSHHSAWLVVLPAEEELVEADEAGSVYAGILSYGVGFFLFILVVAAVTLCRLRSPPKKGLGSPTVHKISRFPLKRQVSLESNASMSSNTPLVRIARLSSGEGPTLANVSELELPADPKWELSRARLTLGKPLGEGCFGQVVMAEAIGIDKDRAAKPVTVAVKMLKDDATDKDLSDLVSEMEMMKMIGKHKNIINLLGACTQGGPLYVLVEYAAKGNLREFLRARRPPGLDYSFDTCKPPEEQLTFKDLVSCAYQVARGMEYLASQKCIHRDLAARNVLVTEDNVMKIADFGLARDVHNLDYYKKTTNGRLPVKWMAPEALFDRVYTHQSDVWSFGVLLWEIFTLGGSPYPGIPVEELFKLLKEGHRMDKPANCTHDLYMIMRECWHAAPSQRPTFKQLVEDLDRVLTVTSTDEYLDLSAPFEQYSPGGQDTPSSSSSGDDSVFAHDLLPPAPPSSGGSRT
# [6] = tested on: FGFR3; assay: biochemical; type: biochemical
# [7] = target: FGFR4 (Homo sapiens, UniProt P22455); assay: biochemical; type: biochemical
# Chain of FGFR4 (P22455 22-802): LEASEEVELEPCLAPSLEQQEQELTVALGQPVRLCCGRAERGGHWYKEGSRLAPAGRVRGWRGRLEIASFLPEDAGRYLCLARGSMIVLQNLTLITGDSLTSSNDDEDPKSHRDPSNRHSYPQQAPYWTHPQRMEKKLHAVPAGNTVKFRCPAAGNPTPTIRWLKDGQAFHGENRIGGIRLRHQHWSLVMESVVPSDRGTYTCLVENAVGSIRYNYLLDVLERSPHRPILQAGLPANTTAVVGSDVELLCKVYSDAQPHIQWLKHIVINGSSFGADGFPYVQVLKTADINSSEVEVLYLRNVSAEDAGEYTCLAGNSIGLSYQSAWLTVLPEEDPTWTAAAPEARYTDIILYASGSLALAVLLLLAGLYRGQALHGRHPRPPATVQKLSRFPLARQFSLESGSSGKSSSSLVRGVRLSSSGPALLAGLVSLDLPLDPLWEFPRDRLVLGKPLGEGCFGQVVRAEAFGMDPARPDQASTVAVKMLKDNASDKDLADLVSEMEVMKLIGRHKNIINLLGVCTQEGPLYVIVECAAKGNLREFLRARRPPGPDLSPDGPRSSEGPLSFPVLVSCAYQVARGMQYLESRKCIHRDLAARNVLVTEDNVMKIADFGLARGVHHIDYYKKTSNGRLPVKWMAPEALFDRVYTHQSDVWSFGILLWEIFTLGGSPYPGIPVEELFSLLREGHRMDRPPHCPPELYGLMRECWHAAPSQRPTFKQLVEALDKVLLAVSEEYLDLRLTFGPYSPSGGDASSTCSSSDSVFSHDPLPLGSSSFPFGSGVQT
# [8] = WST-1 cytotoxicity assay; type: cell-based, mouse; conditions: mouse, NIH-3T3 cells (mouse embryonic fibroblasts)
# [9] = tested on: NIH-3T3 cells; assay: WST-1 cytotoxicity assay; type: cell-based, mouse; conditions: Mus musculus, NIH3T3, 48 h, read-out: NIH-3T3 Cells IC50
# Chain of FGFR1 (Homo sapiens, UniProt P11362) (P11362 22-822): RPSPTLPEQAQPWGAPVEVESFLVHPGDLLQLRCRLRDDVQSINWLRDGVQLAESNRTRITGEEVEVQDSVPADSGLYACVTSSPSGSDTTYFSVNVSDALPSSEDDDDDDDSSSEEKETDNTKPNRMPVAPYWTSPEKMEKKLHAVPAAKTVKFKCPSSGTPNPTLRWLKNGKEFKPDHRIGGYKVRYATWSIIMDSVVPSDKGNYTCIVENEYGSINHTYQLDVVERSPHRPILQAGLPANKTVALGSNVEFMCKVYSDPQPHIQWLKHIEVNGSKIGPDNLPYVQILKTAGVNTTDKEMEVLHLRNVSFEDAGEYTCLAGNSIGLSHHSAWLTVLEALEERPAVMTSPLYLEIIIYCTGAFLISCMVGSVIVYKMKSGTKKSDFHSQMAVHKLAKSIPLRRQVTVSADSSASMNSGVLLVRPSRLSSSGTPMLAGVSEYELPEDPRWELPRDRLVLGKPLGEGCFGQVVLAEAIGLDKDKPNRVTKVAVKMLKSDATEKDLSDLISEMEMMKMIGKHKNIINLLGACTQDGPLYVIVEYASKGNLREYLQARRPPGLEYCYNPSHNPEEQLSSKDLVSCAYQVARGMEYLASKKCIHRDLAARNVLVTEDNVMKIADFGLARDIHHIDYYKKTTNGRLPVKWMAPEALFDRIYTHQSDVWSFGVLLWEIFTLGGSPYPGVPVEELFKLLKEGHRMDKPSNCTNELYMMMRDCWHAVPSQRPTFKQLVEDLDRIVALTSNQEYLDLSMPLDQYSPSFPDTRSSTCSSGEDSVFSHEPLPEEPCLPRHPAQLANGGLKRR
IC50 [1],FGFR selectivity (in words) ([2]; among FGFR1-4),FGFR1-SI [2],IC50 [3],IC50 [5],FGFR4-SI [7],IC50 [7],Compound,FGFR2-SI [4],FGFR3-SI [6],IC50 at 48 h [8],IC50 [9]
7 ± 0.206 nM,selectivity to FGFR1,1,1020 ± 67.3 nM,17100 ± 294 nM,1285.449,8990 ± 314 nM,"CN1CCN(c2ccc(/C=C3/C(=O)Nc4ccc(-c5ccc6cc(O)ccc6c5)cc43)cc2)CC1 [Compound A13, (E)-5-(6-hydroxynaphthalen-2-yl)-3-[4-(4-methylpiperazin-1-yl)benzylidene]indolin-2-one]",146.083,2442.824,> 1000 nM,30100 ± 3230 nM
12 ± 0.736 nM,–,1,–,131 ± 4.23 nM,–,9240 ± 265 nM,"O=CN1CCN(c2ccc(/C=C3/C(=O)Nc4ccc(-c5ccc(C(=O)N6CCOCC6)cc5)cc43)cc2)CC1 [Compound A27, (E)-4-{4-{ {5-[4-(morpholine-4-carbonyl)phenyl]-2-oxoindolin-3-ylidene}methyl}phenyl}piperazine-1-carbaldehyde]",–,10.962,> 1000 nM,1230 ± 467 nM
